The source made the active and inactive calls.
Experiments:
[1] = Luminescence Cell-Based Dose Retest to Confirm Inhibitors of Cancer Stem Cells. [Related pubchem assays (depositor defined):AID2717, AID2721]; assay type: functional; conditions: Homo sapiens
[2] = viability loss of HMLE_sh_eGFP cells – cell-based, luminescence, counter-screen for HMLE_sh_ECad selective toxicity project, dose response (AID 463074); assay type: functional, Homo sapiens;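 note: HMLE human mammary epithelial cells expressing control shRNA against eGFP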
[3] = PAX8-dependent cell viability loss – plate reader, dry powder, dose response (AID 743049); assay type: functional, cell-based
[4] = target: Paired box protein Pax-8 (Homo sapiens, UniProt Q06710); assay: PAX8 transcriptional activity inhibition in RMG-I – RMG-I cells, luciferase, cherry-pick, dose response (AID 687027); assay type: functional, cell-based;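 note: luciferase reporter driven by Pax8 target thyroperoxidase promoter measured by SteadyGlo luminescence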
Paired box protein Pax-8, sequence (Q06710 whole entry): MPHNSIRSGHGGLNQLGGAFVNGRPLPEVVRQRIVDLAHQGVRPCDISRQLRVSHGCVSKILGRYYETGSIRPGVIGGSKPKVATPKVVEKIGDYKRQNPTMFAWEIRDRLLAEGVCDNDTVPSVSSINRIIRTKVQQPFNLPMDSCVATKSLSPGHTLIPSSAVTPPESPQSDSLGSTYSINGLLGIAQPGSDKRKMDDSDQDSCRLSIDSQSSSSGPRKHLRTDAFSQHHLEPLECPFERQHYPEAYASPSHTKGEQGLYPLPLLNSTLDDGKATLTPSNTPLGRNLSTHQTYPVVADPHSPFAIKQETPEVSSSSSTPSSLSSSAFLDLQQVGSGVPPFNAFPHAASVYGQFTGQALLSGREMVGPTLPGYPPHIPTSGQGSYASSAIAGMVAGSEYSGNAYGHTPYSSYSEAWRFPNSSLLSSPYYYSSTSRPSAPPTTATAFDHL

[5] = system: Streptococcus; assay: GAS UMAA2166 growth inhibition – luminescence, BacTiterGlo, counter-screen for streptokinase expression inhibitor project, dose response (AID 1915); assay type: functional, organism-based;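 note: potency for reduction of bacterial viability or growth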
[6] = cells; assay type: functional, cell-based
[7] = OV-90 cell viability loss – plate reader, dry powder, SA8, PAX8 inhibitor project, dose response (AID 743149); assay type: functional, cell-based
[8] = cells; assay type: functional, cell-based; remark: listed apart in the source
[9] = MIN6 cell viability loss – mouse insulinoma, cytotoxicity control, dose response (AID 2122); assay type: functional;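 note: confirmatory high-throughput counterscreen run to flag cytotoxic compounds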
[10] = PAX5 cellular inhibition readout – cell-based, plate reader, dry powder samples, selectivity assay for PAX8 inhibitor project, dose response (AID 743047); assay type: functional;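 note: HEK293 cells carrying a Pax5 driven CD19 promoter luciferase reporter; potency of inhibitors that lower reporter luminescence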
[11] = target: T1, Streptokinase A (Streptococcus pyogenes serotype M1, UniProt P10520); assay: viability-normalized secreted streptokinase activity reduction – plasminogen activation absorbance, OD405, dose response (AID 1914); assay type: functional, Streptococcus pyogenes M1 GAS;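 note: secreted streptokinase activity via plasminogen activation per viability signal from cell pellet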
T1 sequence (P10520 whole entry): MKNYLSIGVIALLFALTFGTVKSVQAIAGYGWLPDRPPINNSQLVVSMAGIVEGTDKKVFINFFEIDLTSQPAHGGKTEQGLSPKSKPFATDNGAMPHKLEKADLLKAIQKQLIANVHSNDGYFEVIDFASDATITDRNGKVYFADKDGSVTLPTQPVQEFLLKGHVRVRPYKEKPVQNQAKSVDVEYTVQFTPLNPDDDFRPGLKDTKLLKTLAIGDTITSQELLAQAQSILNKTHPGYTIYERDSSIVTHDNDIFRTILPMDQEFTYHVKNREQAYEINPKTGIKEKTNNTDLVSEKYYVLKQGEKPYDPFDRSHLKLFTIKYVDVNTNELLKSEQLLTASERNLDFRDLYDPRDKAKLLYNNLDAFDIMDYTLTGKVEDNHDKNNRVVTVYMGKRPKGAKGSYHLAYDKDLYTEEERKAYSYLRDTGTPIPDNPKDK

[12] = decrease of insulin promoter-GFP reporter – imaging, high-content screening, mouse beta cells (AID 1628); assay type: functional; conditions: MIN6
[13] = OVCAR-3 cell viability loss – plate reader, dry powder samples, PAX8 inhibitor project, dose response (AID 743044); assay type: functional, cell-based
[14] = system: Escherichia coli; assay: microbe, parasite or virus in culture
[15] = target: T2, Probable nicotinate-nucleotide adenylyltransferase (Staphylococcus aureus (strain N315), UniProt P65502); assay type: functional, Staphylococcus aureus subsp. aureus N315; conditions: read-out: IC50_Mean;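 for IC50 Mean: confirmatory dose-response retesting of NadD inhibitor hits first found in an ultra-high-throughput screen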
T2 sequence (P65502 whole entry): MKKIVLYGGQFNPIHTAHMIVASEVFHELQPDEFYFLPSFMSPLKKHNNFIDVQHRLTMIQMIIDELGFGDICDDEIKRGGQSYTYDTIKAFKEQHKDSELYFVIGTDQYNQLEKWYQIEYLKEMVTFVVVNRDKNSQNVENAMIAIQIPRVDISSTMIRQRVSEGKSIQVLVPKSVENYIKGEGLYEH

[16] = inhibitors acting on PAX2 in cells – cell-based, plate reader, dry powder samples, selectivity assay for PAX8 inhibitor project, dose response (AID 743048); assay type: functional;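 note: HEK293 cells carrying a WT1 promoter luciferase reporter driven by expressed Pax2; potency is for inhibition of Pax2 driven reporter signal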
[17] = COV434 cell viability loss – plate reader, dry powder, SA7, cytotoxicity control for PAX8 inhibitor project, dose response (AID 743145); assay type: functional, cell-based
[18] = non-specific 3'UTR reporter inhibition in Clone20-Shn3RL – cell-based, Renilla luciferase, cherry-picked, counter-screen for Shn3 inhibitor project, dose response (AID 624133); assay type: functional
[19] = system: INS1; assay: INS-1E survival protection against cytokine death – cell-based, luminescence, retest, dose response (AID 449756); assay type: functional; conditions: Rattus norvegicus;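 note: cell death triggered by IL-1 beta plus TNF-alpha plus IFN-gamma mixture; protective hits raise ATP signal compared with cytokine alone wells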
[20] = OVCAR4 cell viability loss – plate reader, dry powder, SA11, cytotoxicity control for PAX8 inhibitor project, dose response (AID 743150); assay type: functional, cell-based; conditions: OVCAR-4
[21] = system: Streptococcus sp. 'group A'; assay: Streptococcus pyogenes SK(-)GAS viability under kanamycin – luminescence, BacTiterGlo, confirmation, counter-screen for streptokinase expression inhibitor project, dose response (AID 1900); assay type: functional, organism-based
[22] = target: T2, Probable nicotinate-nucleotide adenylyltransferase; assay type: functional, Staphylococcus aureus subsp. aureus N315
[23] = COV362 cell viability loss – plate reader, dry powder, SA12, cytotoxicity control for PAX8 inhibitor project, dose response (AID 743144); assay type: functional, cell-based
[24] = NIH3T3 cell viability loss – ATP luminescence, mouse fibroblasts, counter-screen, dose response (AID 2010); assay type: functional, cell-based;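 note: cells exposed to compound for about 90 hours before reading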
[25] = toxicity toward immortalized ovarian surface epithelium – cell-based, plate reader, dry powder samples, cytotoxicity control for PAX8 inhibitor project, dose response (AID 743045); assay type: functional
[26] = IGROV1 cell killing – plate reader, dry powder samples, PAX8 inhibitor project, dose response (AID 743043); assay type: functional, cell-based; conditions: IGROV-1
[27] = reduction of Shn3 3'UTR-driven luciferase in osteoblasts – cell-based, Clone20 osteoblasts, firefly luciferase, cherry-picked, dose response (AID 624132); assay type: functional;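 note: firefly luciferase luminescence from reporter carrying the Shn3 3'UTR in osteoblasts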
[28] = target: T3, Type-1 angiotensin II receptor (Homo sapiens, UniProt P30556); assay: agonist activity at AGTR1 – cell-based, uHTS hits, selectivity assay for APJ receptor agonist project, dose response (AID 488865); assay type: functional;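 note: beta-arrestin recruitment to AT1 measured by enzyme fragment complementation luminescence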
T3 sequence (P30556 whole entry): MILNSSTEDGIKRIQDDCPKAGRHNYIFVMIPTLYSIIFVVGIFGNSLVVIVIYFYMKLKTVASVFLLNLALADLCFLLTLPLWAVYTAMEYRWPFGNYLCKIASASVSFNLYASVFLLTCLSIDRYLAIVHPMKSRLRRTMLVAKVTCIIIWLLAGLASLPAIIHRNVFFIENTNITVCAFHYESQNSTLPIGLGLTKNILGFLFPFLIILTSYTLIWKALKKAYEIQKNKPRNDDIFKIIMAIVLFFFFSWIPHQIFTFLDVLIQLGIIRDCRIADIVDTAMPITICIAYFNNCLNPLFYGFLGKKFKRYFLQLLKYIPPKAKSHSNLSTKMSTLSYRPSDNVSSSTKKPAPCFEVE

[29] = Trypanosoma cruzi growth suppression in host cells – NIH3T3 host cells, beta-gal luminescence, confirmation (AID 2044); assay type: functional, cell-based;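 note: intracellular parasites grown in NIH/3T3 mouse fibroblasts as host cells; luminescent beta-galactosidase reporter signal from transgenic T. cruzi replicating inside host cells; inhibitors lower the luminescence signal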
[30] = loss of viability in HepG2 cells – cell-based, CellTiter-Glo, cherry-picked, cytotoxicity control for Shn3 inhibitor project, dose response (AID 624134); assay type: functional
[31] = A2780 cell killing – plate reader, dry powder samples, cytotoxicity control, dose response (AID 743046); assay type: functional, cell-based
[32] = target: Keap1/Nrf2 (Homo sapiens, UniProt Q14145); assay: disruptors of Keap1 binding to Nrf2 peptide – biochemical, fluorescence polarization, cherry-picked samples, dose response (AID 588683)
Keap1/Nrf2, sequence (Q16236 whole entry): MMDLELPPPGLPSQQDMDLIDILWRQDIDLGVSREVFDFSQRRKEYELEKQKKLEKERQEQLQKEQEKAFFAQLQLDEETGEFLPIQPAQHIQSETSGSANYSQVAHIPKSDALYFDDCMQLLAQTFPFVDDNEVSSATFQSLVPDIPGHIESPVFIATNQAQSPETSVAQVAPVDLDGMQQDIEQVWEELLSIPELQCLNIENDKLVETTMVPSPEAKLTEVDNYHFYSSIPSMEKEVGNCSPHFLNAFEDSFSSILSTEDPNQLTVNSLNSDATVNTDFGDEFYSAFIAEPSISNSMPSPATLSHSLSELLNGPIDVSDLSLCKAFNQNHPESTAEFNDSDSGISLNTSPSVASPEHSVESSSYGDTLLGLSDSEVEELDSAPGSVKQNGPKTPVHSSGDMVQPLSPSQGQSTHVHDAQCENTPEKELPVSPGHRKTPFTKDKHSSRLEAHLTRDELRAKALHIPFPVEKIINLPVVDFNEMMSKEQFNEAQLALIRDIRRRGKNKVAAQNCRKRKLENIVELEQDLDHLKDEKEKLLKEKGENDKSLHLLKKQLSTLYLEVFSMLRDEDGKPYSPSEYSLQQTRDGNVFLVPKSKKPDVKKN
Keap1/Nrf2, sequence (Q14145 whole entry): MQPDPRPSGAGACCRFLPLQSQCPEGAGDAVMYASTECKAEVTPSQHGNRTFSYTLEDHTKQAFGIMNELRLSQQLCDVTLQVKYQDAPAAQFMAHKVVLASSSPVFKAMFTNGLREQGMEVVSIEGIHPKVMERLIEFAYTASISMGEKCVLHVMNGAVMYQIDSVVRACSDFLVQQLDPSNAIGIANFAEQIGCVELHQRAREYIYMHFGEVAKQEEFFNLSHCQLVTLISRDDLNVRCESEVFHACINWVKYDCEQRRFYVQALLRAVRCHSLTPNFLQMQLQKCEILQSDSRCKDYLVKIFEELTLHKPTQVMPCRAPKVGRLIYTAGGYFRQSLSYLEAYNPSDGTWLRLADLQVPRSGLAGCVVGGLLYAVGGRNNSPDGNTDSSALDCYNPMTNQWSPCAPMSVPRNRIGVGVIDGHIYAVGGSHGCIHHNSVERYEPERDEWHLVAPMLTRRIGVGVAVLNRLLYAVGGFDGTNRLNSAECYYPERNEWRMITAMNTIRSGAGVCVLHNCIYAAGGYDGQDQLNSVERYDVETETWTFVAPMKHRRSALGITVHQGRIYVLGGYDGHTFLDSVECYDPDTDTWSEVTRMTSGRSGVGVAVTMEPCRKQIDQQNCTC

[33] = target: ORF 73 (Human herpesvirus 8, UniProt O40947); assay: KSHV LANA DNA-binding disruption – biochemical, fluorescence polarization, cherry-picked samples, dose response (AID 504725); design: species or system Human gammaherpesvirus 8;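 note: fluorescence polarization of a labeled DNA duplex reporting LANA DNA binding; potency is for inhibitors that block LANA binding to the DNA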
[34] = target: T4, Zinc finger protein mex-5 (Caenorhabditis elegans, UniProt Q9XUB2); assay: potency of MEX-5 RNA-binding blockers – biochemical, C. elegans, fluorescence polarization, dose response (AID 1960)
T4 sequence (Q9XUB2 whole entry): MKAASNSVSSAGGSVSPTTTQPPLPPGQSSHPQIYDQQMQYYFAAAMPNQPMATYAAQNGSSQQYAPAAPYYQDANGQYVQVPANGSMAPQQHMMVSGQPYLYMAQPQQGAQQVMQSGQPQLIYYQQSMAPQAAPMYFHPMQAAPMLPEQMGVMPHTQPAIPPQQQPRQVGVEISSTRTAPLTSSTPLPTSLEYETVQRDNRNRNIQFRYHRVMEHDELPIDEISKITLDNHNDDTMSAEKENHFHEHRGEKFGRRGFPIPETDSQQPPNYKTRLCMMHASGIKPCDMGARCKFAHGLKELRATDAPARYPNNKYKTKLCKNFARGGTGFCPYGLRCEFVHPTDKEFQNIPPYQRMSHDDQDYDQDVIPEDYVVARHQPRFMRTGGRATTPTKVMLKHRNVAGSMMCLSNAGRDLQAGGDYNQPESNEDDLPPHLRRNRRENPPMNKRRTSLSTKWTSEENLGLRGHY

[35] = target: Luciferin 4-monooxygenase (Photinus pyralis, UniProt P08659); assay: inhibition of purified Photinus pyralis luciferase – biochemical, luminescence, dose response (AID 1891)
[36] = target: Photoreceptor-specific nuclear receptor (Homo sapiens, UniProt Q9Y5X4); assay: ligands suppressing NR2E3 nuclear receptor activity – biochemical, TR-FRET, dose response (AID 463256); assay type: functional
[37] = target: T5, RNA-binding protein pos-1 (Caenorhabditis elegans, UniProt G5EF15); assay: disruptors of C. elegans POS-1 RNA interaction – biochemical, fluorescence polarization, dose response (AID 1964);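 note: purified POS-1 fused to maltose binding protein made in E. coli; potency of compounds blocking POS-1 binding to fluorescent RNA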
T5 sequence (G5EF15 whole entry): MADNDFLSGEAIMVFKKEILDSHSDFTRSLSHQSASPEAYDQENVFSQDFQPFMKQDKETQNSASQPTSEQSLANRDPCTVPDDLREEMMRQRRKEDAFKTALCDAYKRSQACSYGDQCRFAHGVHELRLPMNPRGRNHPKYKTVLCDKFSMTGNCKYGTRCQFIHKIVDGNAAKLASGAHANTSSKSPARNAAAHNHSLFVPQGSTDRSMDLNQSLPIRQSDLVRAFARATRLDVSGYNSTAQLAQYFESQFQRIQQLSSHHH

[38] = target: Peroxisome proliferator-activated receptor gamma/Nuclear receptor corepressor 2 (Homo sapiens, UniProt P37231+Q9Y618); assay: Counterscreen for NR2E3 inverse agonists: TR-FRET-based biochemical high throughput dose response assay to identify inverse agonists of the interaction between peroxisome proliferator-activated receptor gamma (PPARg) and nuclear receptor co-repressor 2 (NCOR2).; assay type: functional
Peroxisome proliferator-activated receptor gamma/Nuclear receptor corepressor 2, sequence (P37231 whole entry): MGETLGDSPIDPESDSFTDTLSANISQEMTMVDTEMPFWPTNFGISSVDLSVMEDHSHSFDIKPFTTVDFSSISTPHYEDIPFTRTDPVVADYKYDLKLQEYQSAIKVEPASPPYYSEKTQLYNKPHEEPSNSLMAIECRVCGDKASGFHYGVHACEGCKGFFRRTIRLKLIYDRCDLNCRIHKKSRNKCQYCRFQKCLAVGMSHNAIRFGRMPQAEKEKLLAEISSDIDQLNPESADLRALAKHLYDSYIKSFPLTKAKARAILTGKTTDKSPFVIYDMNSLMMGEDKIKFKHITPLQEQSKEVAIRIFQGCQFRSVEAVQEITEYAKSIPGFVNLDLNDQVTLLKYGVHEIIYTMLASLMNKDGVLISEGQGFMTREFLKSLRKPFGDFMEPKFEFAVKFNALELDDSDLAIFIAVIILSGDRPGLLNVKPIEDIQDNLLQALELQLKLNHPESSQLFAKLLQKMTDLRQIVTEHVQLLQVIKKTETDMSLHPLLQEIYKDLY
Peroxisome proliferator-activated receptor gamma/Nuclear receptor corepressor 2, sequence (Q9Y618 whole entry): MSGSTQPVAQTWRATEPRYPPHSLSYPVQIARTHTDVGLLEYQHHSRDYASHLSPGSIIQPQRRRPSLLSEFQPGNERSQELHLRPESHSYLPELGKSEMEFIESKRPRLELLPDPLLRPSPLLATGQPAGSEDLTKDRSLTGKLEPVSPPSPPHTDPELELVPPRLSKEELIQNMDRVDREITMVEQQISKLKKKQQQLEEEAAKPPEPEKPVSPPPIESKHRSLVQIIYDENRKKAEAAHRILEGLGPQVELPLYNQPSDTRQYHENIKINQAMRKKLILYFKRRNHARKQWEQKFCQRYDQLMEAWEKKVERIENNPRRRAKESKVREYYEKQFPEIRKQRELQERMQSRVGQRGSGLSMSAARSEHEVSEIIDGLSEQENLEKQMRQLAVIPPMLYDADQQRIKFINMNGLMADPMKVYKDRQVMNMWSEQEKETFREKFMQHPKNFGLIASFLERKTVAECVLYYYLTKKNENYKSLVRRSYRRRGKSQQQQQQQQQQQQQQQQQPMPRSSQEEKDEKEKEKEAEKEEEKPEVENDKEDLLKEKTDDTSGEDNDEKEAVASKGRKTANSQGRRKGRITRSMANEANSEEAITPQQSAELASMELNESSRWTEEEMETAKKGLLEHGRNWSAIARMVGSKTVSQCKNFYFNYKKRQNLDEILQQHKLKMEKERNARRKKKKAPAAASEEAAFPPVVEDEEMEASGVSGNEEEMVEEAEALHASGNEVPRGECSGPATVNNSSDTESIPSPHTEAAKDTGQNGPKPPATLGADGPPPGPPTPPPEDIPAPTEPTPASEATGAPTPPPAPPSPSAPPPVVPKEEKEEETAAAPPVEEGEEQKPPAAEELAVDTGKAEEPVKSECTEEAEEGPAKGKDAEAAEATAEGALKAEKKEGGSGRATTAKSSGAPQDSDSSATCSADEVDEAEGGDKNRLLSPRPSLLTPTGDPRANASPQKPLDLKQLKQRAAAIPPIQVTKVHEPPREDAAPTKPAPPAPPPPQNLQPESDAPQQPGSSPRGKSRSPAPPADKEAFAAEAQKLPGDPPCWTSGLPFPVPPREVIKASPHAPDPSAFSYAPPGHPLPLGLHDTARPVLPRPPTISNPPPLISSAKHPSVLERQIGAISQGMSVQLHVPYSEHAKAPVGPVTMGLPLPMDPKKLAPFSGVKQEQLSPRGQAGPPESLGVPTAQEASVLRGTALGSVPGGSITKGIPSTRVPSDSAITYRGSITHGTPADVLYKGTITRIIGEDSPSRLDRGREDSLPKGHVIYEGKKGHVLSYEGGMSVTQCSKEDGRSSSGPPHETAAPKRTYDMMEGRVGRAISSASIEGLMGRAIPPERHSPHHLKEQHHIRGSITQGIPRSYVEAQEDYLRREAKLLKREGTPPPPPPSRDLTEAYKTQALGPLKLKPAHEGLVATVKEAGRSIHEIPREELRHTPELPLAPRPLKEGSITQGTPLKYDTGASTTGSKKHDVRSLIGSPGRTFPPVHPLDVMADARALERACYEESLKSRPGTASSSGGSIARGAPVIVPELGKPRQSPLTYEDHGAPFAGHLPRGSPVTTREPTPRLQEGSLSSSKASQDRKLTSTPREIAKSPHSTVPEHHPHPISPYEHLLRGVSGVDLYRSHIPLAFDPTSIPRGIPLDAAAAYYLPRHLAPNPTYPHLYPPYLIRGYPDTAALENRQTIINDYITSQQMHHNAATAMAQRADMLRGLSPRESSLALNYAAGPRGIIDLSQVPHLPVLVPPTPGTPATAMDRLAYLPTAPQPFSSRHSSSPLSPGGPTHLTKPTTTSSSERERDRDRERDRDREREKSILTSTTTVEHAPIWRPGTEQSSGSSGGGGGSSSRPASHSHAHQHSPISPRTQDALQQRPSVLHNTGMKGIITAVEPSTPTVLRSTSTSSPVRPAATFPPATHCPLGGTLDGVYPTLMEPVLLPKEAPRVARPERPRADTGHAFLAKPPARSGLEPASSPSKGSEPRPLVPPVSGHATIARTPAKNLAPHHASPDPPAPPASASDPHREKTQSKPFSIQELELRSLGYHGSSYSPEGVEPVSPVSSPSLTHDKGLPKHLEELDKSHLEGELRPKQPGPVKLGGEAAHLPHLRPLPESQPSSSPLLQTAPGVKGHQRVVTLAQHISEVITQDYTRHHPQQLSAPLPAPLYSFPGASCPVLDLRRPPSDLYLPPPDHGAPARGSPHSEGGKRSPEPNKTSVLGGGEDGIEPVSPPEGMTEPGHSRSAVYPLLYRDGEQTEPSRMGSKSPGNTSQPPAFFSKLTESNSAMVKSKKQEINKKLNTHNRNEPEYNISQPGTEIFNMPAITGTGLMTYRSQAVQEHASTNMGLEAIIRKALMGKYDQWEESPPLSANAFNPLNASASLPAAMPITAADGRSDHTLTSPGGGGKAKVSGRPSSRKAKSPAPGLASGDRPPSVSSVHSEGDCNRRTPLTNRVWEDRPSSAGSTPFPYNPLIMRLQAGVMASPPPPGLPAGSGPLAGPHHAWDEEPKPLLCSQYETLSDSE

[39] = target: T6, Heat shock factor protein 1 (Mus musculus, UniProt P38532); assay: enhancement of HSF1-driven luciferase signal – cell-based, NIH3T3, luminescence, dose retest, confirmation (AID 435004); assay type: functional;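 note: stress induced by proteasome inhibitor MG132 added 30 min after compound; luciferase reporter driven by HSF1 response element in NIH3T3 cells; actives raise luminescence as potentiators of the MG132 stress response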
T6 sequence (P38532 whole entry): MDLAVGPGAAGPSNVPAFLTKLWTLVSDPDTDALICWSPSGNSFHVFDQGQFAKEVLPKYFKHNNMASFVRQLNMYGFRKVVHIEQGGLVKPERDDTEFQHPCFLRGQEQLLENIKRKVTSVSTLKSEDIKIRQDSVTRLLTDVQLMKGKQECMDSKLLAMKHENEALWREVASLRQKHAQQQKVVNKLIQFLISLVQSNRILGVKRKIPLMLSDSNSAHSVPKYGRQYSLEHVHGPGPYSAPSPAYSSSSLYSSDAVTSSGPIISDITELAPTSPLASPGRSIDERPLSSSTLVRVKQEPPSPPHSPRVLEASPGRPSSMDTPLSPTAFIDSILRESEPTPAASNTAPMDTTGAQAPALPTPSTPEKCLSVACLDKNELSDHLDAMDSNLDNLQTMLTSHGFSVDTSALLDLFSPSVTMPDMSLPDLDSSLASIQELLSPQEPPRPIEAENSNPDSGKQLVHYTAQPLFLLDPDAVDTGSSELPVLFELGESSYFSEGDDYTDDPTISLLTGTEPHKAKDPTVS

Question: What does the source list for `COc1cc2c(cc1NC(=O)c1cccc([N+](=O)[O-])c1C)oc1ccccc12`?
Answer: AC50 [1]: 2.65 µM (active); AC50 [2]: 41.4 µM (active)

Question: Which results are given for `Cc1ccc2nc(NNC(=O)c3ccc(S(=O)(=O)N4CCc5ccccc5C4)cc3)sc2c1`?
Answer: AC50 [3]: 9.32 µM (active); AC50 [1]: 3.74 µM (active); AC50 [4]: 3.01 µM (active); EC50 [5]: > 150 µM (not active); EC50 [6]: 13.5 µM (active); AC50 [7]: 9.99 µM (active); EC50 [8]: > 350 µM (not active); IC50 [9]: 2.7 µM (active); AC50 [10]: 5.81 µM (active); EC50 [11]: > 150 µM (not active); IC50 [12]: 3.03 µM (active); AC50 [13]: 31.1 µM (active); AC50 [14]: 39 µM (active); IC50 [15]: 52.7 µM (active); AC50 [16]: 6.18 µM (active); AC50 [17]: 13.7 µM (active); AC50 [18]: 1.78 µM (active); AC50 [19]: 2.17 µM (active); AC50 [20]: 31.1 µM (active); EC50 [21]: 0.499 µM (active); IC50 [22]: 9.9 µM (active); AC50 [23]: 18.3 µM (active); EC50 [24]: 3.65 µM (active); AC50 [25]: 19.5 µM (active); AC50 [26]: 8.28 µM (active); AC50 [27]: 1.62 µM (active); EC50 [28]: > 100 µM (inactive); EC50 [29]: 0.904 µM (active); AC50 [30]: 2.88 µM (active); AC50 [31]: 14.8 µM (active)

Question: With `O=c1[nH]c2c(s1)C=Nc1ccccc1N2` as the compound, how does the AC50 [32] read?
Answer: Its AC50 is 9.53 µM (active).

Question: What about the EC50 [11] of the same compound?
Answer: Its EC50 is > 150 µM (not active).

Question: What about the AC50 [33] of the same compound?
Answer: The AC50 was 5.1 µM (active).

Question: What about the EC50 [34] of the same compound?
Answer: Its EC50 is 1.23 µM (inconclusive).

Question: And the EC50 [35]?
Answer: The EC50 was > 112 µM (not active).

Question: And the IC50 [36]?
Answer: Its IC50 is 3.14 µM (active).

Question: And the EC50 [37]?
Answer: Its EC50 is 2.6 µM (inconclusive).

Question: What about the IC50 [38] of the same compound?
Answer: Its IC50 is 2.26 µM (active).

Question: And the EC50 [39]?
Answer: Its EC50 is > 260 µM (inactive).
